# Results taken from patent US11076597B2, “High stress resistant plant growth regulator and preparation method and use thereof” (SHANGHAI INSTITUTES FOR BIOLOGICAL SCIENCES, CHINESE …, priority 2015, dated 2021).
# Entries after “also recorded” stand apart in the source; their conditions may differ.
# Columns and labels:
# [1] = tested on: wheat; assay: Soil drought experiment, wheat; format: in vivo; conditions: 100 μM sprayed once every 3 days; 6 days of drought; FIG. 17
# Method: Soybean, cotton and wheat for leaf transpiration experiments were used simultaneously for soil drought experiments, each pot was filled with the same weight of soil to reduce experimental error. All the soybean plants were subjected to a long-day culture at 26° C. 14 days after sowing, watering was stopped and the plants with the consistent growth condition were selected for drought treatment. At the start of the drought, a solution containing 0.1% Tween-20 and 20 μM (+)-ABA/0224/0304 or 0.1% Tween-20 and 0.05% DMSO (control) was sprayed onto the leaf surface once with a spray amount of 4 ml solution/pot. Meanwhile, the position of the pot was changed and re-watered 6 days after the drought, and the photos were taken 1 day after re-watering. The drought experiment of cotton was similar to that of soybeans, watering was stopped 25 days after sowing, the plants with the consistent growth condition were selected for drought treatment. At the start of the drought, a solution containing 0.1% Tween-20 and 20 μM (+)-ABA/0224 or 0.1% Tween-20 and 0.05% DMSO (control) was sprayed onto the leaf surface once with a spray amount of 4 ml solution/pot, and then sprayed once every 3 days. Meanwhile, the position of the pot was changed and re-watered 6 days after the drought, and the photos were taken before re-watering and 1 day after re-watering. […]
# [2] = tested on: PYL receptor triple mutant (pyr1;pyl1;pyl4) seeds; assay: Seed germination, PYL receptor triple mutant; format: in vivo, Arabidopsis thaliana; conditions: 1 μM in 1/2 MS solid medium, 6 days after sowing; FIG. 3
# Method: Take the compounds 0428 and 0224 of the present invention as examples. The seeds of Arabidopsis thaliana Col-0 ecotype and PYL receptor triple mutant (pyr1;pyl1;pyl4) were sterilized with NaClO and placed at 4° C. for 3 days of the vernalization, and then sown in ½ MS solid medium containing 1 μM (+)-ABA/0224 compound or 0.05% DMSO (control) or in ½ MS solid medium containing 2 μM (+)-ABA/compound 0428 of the present invention or 0.05% DMSO (control). Two lines of plant were sown simultaneously on each medium of 6 cm diameter, with 15-20 seeds sown for each line and 4 replicates for each compound. Culture medium was placed at 22° C. with long-day culture. The seeds germinated on a solid medium containing 1 μM (+)-ABA/0224 compound were photographed 6 days after sowing, and seeds germinated on solid medium containing 2 μM (+)-ABA/0428 compound were photographed 9 days after sowing.
# [3] = tested on: soybean GmPYL6 protein; assay: AlphaScreen assay, soybean GmPYL6 with Arabidopsis AtHAB1; format: biochemical; conditions: fraction of the EC50 of ABA; FIG. 13
# Method: (§1) The AlphaScreen kit (available from Perkin Elmer) was used, and the method was as follows: a 10× buffer (50 mM MOPS, pH 7.4, 50 mM NaF, 50 mM CHAPS, 0.1 mg/ml bovine serum albumin) diluted at 1:10, each of 100 nM HAB1 with Biotin tag sequence and PYR1/PYL1/PYL2/PYL7/GmPYL6/OsPYL2 protein with dual tags of 6×His and SUMO sequences, corresponding concentrations of (+)-ABA/0224/0304/0706/0708/0713/0715/0428/NC0F4, and 5 μg/ml donor beads and acceptor beads (available from Perkin Elmer) were contained in 150 μl of experimental system. After incubating for 1.5 hours at room temperature in the dark, it was placed into an Envision Plate Reader (available from Perkin Elmer) under the programmed AlphaScreen procedure for readings.
# [4] = tested on: corn; assay: Soil drought experiment, corn; format: in vivo; conditions: 50 μM sprayed once a day for two days; 4 days of drought; FIG. 14b
# Method: Soil drought experiments used for compound 0428 on soybean and maize were similar to that used for compound 0224 on soybeans, with only one plant contained in each pot. All soybean plants were long-day cultured at 26° C. Watering was stopped after the plant had three leaves in each of three groups and the plants with consistent growth were selected for drought treatment. As for corn, watering was stopped during the small bell-mouthed period for drought treatment. A solution containing 0.05% tween-20 and 50 μM (+)-0428 or 0.05% Tween-20 and 0.05% DMSO (control) was sprayed once on leaf surface on the first day and the second day of the drought, respectively, with a spray amount of 4 ml/pot. Meanwhile the pot position was also changed. The soybeans were re-watered 9 days after the drought, the corn was re-watered 4 days after the drought, and the photos were taken the next day.
# In another group of experiments, soil drought experiments were performed on soybeans with three leaves in three groups or corn plants during the small trumpet period of the same size.
# [5] = target: T1, rice OsPYL2 protein (Oryza sativa subsp. japonica, UniProt Q5Z8S0); assay: AlphaScreen assay, rice OsPYL2 with Arabidopsis AtHAB1; format: biochemical; conditions: fraction of the EC50 of ABA; FIG. 13
# T1 construct: made in house; host or cells: E. coli BL21 (DE3)
# T1 sequence (Q5Z8S0 1-207): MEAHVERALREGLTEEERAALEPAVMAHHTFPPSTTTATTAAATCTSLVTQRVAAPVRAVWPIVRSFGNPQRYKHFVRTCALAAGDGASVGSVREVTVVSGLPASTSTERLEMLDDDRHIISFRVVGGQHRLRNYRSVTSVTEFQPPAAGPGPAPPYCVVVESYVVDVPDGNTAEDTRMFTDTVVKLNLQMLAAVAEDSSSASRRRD
# T1 sequence (Q9CAJ0 172-511 partner limits assumed): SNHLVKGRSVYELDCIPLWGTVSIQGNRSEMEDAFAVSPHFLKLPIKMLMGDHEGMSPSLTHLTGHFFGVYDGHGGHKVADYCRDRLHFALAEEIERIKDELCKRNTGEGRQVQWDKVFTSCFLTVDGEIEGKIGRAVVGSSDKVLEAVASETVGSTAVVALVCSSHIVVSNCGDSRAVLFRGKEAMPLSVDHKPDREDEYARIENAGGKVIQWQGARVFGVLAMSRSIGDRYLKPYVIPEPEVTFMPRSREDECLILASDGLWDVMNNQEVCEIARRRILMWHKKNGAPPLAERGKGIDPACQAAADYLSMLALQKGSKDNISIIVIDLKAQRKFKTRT
# Method: as §1
EC50 value for soybean GmPYL6 as fraction of that of ABA [3],EC50 value for rice OsPYL2 as fraction of that of ABA [5],Compound,growth after drought [1],inhibition of seed germination of pyr1;pyl1;pyl4 triple mutant [2],growth after drought and re-watering [4]
,,"CC1=CC(=O)CC(C)(C)[C@@]1(O)/C=C/C(C)=C\C(=O)O [ABA, Abscisic Acid, reference compound]",significantly better than that in the control group (DMSO); also recorded: remained upright,,
,,CCCN1C(=O)OC(C)c2cc(NS(=O)(=O)Cc3c(F)c(F)c(C)c(F)c3F)ccc21 (stereo not drawn) [Compound 0224],significantly better than that in the control group (DMSO); also recorded: remained upright,significantly reduced; also recorded: could not inhibit the seed germination of PYR/PYL triple mutant,
about 1/14,⅓,CCCN1C(=O)OCc2cc(NS(=O)(=O)Cc3c(F)c(F)c(C)c(F)c3F)ccc21 [Compound 0428],,,significantly better growth after re-watering than that in the DMSO-sprayed control group
